Test results as given in paper PMC3102446, “Different Effects of Mg^2+ and Zn^2+ on the Two Sites for Alkylammonium Compounds in Pseudomonas aeruginosa Phosphorylcholine Phosphatase” (Enzyme Research, 2011).

Assays:
[1] = molecular target: T1, Pseudomonas aeruginosa phosphorylcholine phosphatase (PchP) (Pseudomonas aeruginosa, UniProt Q9HTR2); test: biochemical
T1 construct: His-tag fusion produced in E. coli BL21 CodonPlus; purified with EDTA to remove residual metal
From the text: inhibition of p-NPP hydrolysis, DYNAFIT global fit on Pseudomonas aeruginosa phosphorylcholine phosphatase (PchP)

[2] = test system: C[N+](C)(C)CCOP(=O)([O-])O; test: purified protein; conditions: 0.25-2 mM Mg2+, 100 mM sodium acetate pH 5.0, 37 °C, kcat1 of productive EAS complex
From the text: Pi release assay, DYNAFIT global fit on Pseudomonas aeruginosa phosphorylcholine phosphatase (PchP)

T1 sequence (Q9HTR2 23-349): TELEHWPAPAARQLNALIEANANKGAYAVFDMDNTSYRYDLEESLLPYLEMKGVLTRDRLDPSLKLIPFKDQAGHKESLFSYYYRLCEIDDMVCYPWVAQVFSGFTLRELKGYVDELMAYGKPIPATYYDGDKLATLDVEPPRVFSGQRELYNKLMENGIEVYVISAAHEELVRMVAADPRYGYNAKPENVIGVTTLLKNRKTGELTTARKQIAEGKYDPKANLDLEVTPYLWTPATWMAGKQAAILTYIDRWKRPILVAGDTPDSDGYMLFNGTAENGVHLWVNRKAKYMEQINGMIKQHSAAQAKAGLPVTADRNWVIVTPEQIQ

C[N+](C)(C)CC(=O)[O-] [Betaine]
Ki [1]: 1440 ± 90 µM

C[N+](C)(C)C [Tetramethylammonium]
Ki [1]: 35 ± 8 µM

CN(C)C(=O)Oc1cccc([N+](C)(C)C)c1 [Neostigmine]
Ki [1]: 570 ± 50 µM

Pseudomonas aeruginosa phosphorylcholine phosphatase (PchP) (Pseudomonas aeruginosa PAO1)
Km [2]: 21 ± 8 µM
kcat [2]: 121 ± 8 s⁻¹

N[C@H](CO)Cc1c[nH]cn1 [L-histidinol]
Ki [1]: 310 ± 80 µM

C[N+](C)(C)CCCCCC[N+](C)(C)C [Hexamethonium]
Ki [1]: 80 ± 10 µM

C[N+](C)(C)CCCCCCCCCC[N+](C)(C)C [Decamethonium]
Ki [1]: 80 ± 10 µM

C[N+](C)(C)CCCl [Chlorocholine]
Ki [1]: 120 ± 10 µM

CN(C)C [Trimethylamine]
Ki [1]: 60 ± 10 µM

CC(C)(N)CO [2-amino-2-methyl-1-propanol]
Ki [1]: 210 ± 10 µM

C[N+](C)(C)CCO [Choline]
Ki [1]: 100 ± 10 µM

COc1cc2c3cc1Oc1cc(ccc1O)C[C@@H]1c4c(cc(OC)c(O)c4Oc4ccc(cc4)C[C@@H]3N(C)CC2)CC[N+]1(C)C [Tubocurarine]
Ki [1]: 2510 ± 210 µM
